From patent US20110306570A1, “Na/K-Atpase Expression as an Indicator for the Treatment of Cancer” (UNIVERSITY OF TOLEDO, priority 2008, published 2011)
“Also recorded” adds a separate entry of the source.

Columns and labels:
BT20 cells [1] = experiment: MTT cell growth assay, BT20 cells; format: cell-based, human; conditions: 24 h
Method: (§1) FIG. 1A: LLC-PK1 cells, BT20 cells, and DU145 cells were subcultured in 96-well plates (10,000 cells/well) and serum starved. […] Cells were solublized by adding 100 μl/well detergent provided by ATCC after 90 min of incubation and OD570 was then measured.
(§2) MTT assay for measuring cell proliferation: Cells were sub-cultured in 96 well plates at 10,000 cells/well in 100 μl culture medium. […] Ten μl MTT reagent (3-4,5-dimethylthiazol-2-yl)-2,5-diphenyltetrazolium bromide) was added to each well for 90 min. The formazan crystal was dissolved with detergent and the OD value was measured at 570 nm.

DU145 cells [2] = experiment: MTT cell growth assay, DU145 cells; format: cell-based, human; conditions: 24 h
Method: as §1, §2

A4-11 cells = experiment: MTT cell growth assay, Na/K-ATPase knock-down A4-11 cells; format: cell-based, pig; conditions: ouabain, 16 h
Method: as §2

PY-17 cells = experiment: MTT cell growth assay, Na/K-ATPase knock-down PY-17 cells; format: cell-based, pig
Method: FIG. 3B: The Na/K-ATPase knock-down cells (PY17) were treated with different digitalis compounds and the cell growth was measured by MTT assay.
as §2

BT20 cells [3] = experiment: Cell growth curve (cell counting), BT20 cells; format: cell-based, human
Method: (§3) FIG. 1B: The above three cell lines were subcultured in 12-well plates (50,000 cells/well) and serum starved.
(§4) Cell growth curve and cell cycle measurement: Cells were sub-cultured in 12 well plates at 50,000/well in 1 ml culture medium for 24 h. […] At each indicated time point, three wells of control or treated cells were trypsinized and counted. For cell cycle measurement, cells were trypsinized and re-suspended in Citrate buffer (8.55% sucrose, 1.18% Na citrated, 5% DMSO, pH 7.6), and stained with propidium iodide (PI). The stained cells were then analyzed by Flow Cytometry.

DU145 cells [4] = experiment: Cell growth curve (cell counting), DU145 cells; format: cell-based, human; conditions: 10 nM ouabain
Method: as §3, §4

Na/K-ATPase α1 [5] = target: T1, Na/K-ATPase α1 (Sus scrofa, UniProt P05024); experiment: Na/K-ATPase α1 expression by Western blot, LLC-PK1 cells; format: cell-based, pig
T1 construct: endogenous in cells; host or cells: LLC-PK1 (ATCC) and its caveolin-1 knock-down line C2-9
Method: FIG. 7A: LLC-PK1 cells were pre-treated with 10 nM rapamycin or 50 μM LY294002 for 30 min. […] The cell lysates were analyzed for Na/K-ATPase α1 using Western blot.

Na/K-ATPase α1 [6] = target: T2, Na/K-ATPase α1 (Mus musculus, UniProt Q8VDN2); experiment: Na/K-ATPase α1 expression, SYF cells; format: cell-based; conditions: SYF cells (Src, Yes, Fin knocked out), 0.5 and 1.0 μM ouabain
T2 construct: endogenous in cells; host or cells: SYF cells; SYF cells rescued by c-Src
Excerpt: (§5) To further understand the molecular mechanism of ouabain-induced up-regulation of α1, the inventors first addressed the role of Src.

Na/K-ATPase α1 [7] = target: T2, Na/K-ATPase α1; experiment: Na/K-ATPase α1 expression, SYF cells rescued by c-Src; format: cell-based; conditions: 0.5 and 1.0 μM ouabain
Excerpt: as §5

Na/K-ATPase α1 [8] = target: T1, Na/K-ATPase α1; experiment: Na/K-ATPase α1 expression, caveolin-1 knock-down C2-9 cells; format: cell-based, pig; conditions: C2-9 caveolin-1 knockdown cells, 5 and 10 nM ouabain, 72 h
Na/K-ATPase β1 = Na/K-ATPase β1 expression by Western blot, LLC-PK1 cells; format: cell-based, pig; conditions: 10 nM ouabain, 24 h
Excerpt: Na/K-ATPase, but also in the formation of tight junctions and in suppression of tumor cell growth.

[9] = target: T3, Na/K-ATPase in the plasma membrane (Sus scrofa, UniProt P05024); experiment: 3H-ouabain binding after ouabain pre-treatment, LLC-PK1 cells; format: cell-based, pig; conditions: ouabain up to 10 nM, 72 h
T3 construct: endogenous in cells; host or cells: LLC-PK1 (intact cells)
Method: (§6) The cells were washed and 3H-ouabain were performed as described herein. * p<0.05, ** p<0.01
(§7) To assess the functional consequence of these changes in α1 expression, the inventors measured the number of functional Na/K-ATPase in the plasma membrane.
(§8) Afterwards, cells were washed with serum-free medium and subjected to 3H-ouabain binding assay. Briefly, cells were incubated in K+-free Kreb's solution (NaCl 137 mM; KCl 0 mM; CaCl2 2.8 mM; NaH2PO4 0.6 mM; MgSO4 1.2 mM; dextrose; 10 mM; Tris 15 mM; pH7.4) for 15 min, and then exposed to 100 nM 3H-ouabain for 30 min at 37° C. At the end of incubation, the cells were washed 3 times with ice-cold K+-free Kreb's solution, solubilized in 0.1M NaOH-0.2% SDS, and counted in a scintillation counter for 3H-ouabain. […] Paralleled plates were used for counting cell numbers. 3H-ouabain binding data were calculated as binding sites per cell.

Akt = Akt phosphorylation (pAkt) by Western blot, LLC-PK1 cells; format: cell-based, pig; conditions: ouabain 15 min
[10] = target: T4, Na/K-ATPase in the plasma membrane (Homo sapiens, UniProt P05023); experiment: 3H-ouabain binding after ouabain pre-treatment, DU145 cells; format: cell-based; parameters: endogenous in cells; conditions: ouabain 72 h
Method: as §6, §7, §8

Na/K-ATPase α1 [11] = target: T5, Na/K-ATPase α1 (Homo sapiens, UniProt P05023); experiment: Na/K-ATPase α1 endocytosis by confocal immunostaining, BT20 cells; format: cell-based; parameters: endogenous in cells; host or cells: BT20; conditions: 10 nM ouabain
Method: Na/K-ATPase al was immunostained and visualized using Leica confocal microscope. The red arrows indicate the endocytosed vesicles containing Na/K-ATPase α1.
The cells were fixed with ice-cold methanol for 15 min and blocked with Signal Enhancer from Invitrogen. Monoclonal anti-Na/K-ATPase α1 antibody was then incubated with the cells overnight at 4° C. After 3 washes, a secondary Alexa 488-conjugated anti-mouse antibody was added and incubated for 2 h at room temperature. The coverslip was washed, mounted and imaged using a Leica confocal microscope.

[12] = target: T4, Na/K-ATPase in the plasma membrane; experiment: 3H-ouabain binding after ouabain pre-treatment, BT20 cells; format: cell-based; parameters: endogenous in cells; host or cells: BT20 (intact cells); conditions: ouabain 72 h
Method: as §6, §7, §8

Na/K-ATPase α1 [13] = target: T5, Na/K-ATPase α1; experiment: Na/K-ATPase α1 expression by Western blot, DU145 cells; format: cell-based; parameters: endogenous in cells; host or cells: BT20, DU145, MDA-MB-435s; conditions: ouabain 24 h or 72 h exposure
[14] = different concentrations of ouabain

## C[C@@H]1O[C@@H](O[C@H]2C[C@@H](O)[C@]3(CO)[C@H]4[C@H](O)C[C@]5(C)[C@@H](C6=CC(=O)OC6)CC[C@]5(O)[C@@H]4CC[C@]3(O)C2)[C@H](O)[C@H](O)[C@H]1O [ouabain]
BT20 cells [1]; 10-50 nM ouabain
  effect on cell growth (MTT): significant inhibition of cell growth
BT20 cells [1]; [14]
  stimulatory effect on cell growth (MTT): failed to detect any stimulatory effect
DU145 cells [2]; 10-50 nM ouabain
  effect on cell growth (MTT): significant inhibition of cell growth
DU145 cells [2]; [14]
  stimulatory effect on cell growth (MTT): failed to detect any stimulatory effect
A4-11 cells
  growth stimulation (MTT): No growth stimulation was detected
PY-17 cells; PY17 cells, ouabain, 16 h
  growth stimulation (MTT): No growth stimulation was detected
PY-17 cells; PY-17 cells, 10 nM ouabain
  reduction in cell growth (MTT): more than 30%
BT20 cells [3]; 50 nM ouabain
  block of cell growth (cell counting): completely block the growth
BT20 cells [3]; 10 and 50 nM ouabain
  cell number as a function of time: significantly reduced the number of BT20 cells
DU145 cells [4]
  block of cell growth (cell counting): completely block the growth
Na/K-ATPase α1 [5]; 10 nM rapamycin pre-treatment, 10 nM ouabain 24 h
  α1 expression with ouabain in the presence of rapamycin: further decrease in the expression of al; also recorded: further decrease in the expression of a1
Na/K-ATPase α1 [5]; ouabain 24 h or 72 h exposure
  Na/K-ATPase α1 expression: induction of α1 expression
Na/K-ATPase α1 [6]
  ouabain-induced α1 expression: completely blocked ouabain-induced α1 expression
Na/K-ATPase α1 [7]
  induction of α1 expression: three-fold induction
Na/K-ATPase α1 [8]
  ouabain-induced increases in α1 expression: completely abolished ouabain-induced increases in α1 expression
Na/K-ATPase β1
  Na/K-ATPase β1 expression: modest increase in β1 expression
[9]
  number of 3H-ouabain binding sites (functional plasma membrane Na/K-ATPase): barely changed the number of binding sites
Akt
  Akt phosphorylation: stimulated Akt phosphorylation
[10]
  surface active Na/K-ATPase (3H-ouabain binding): significant decrease in surface active Na/K-ATPase
Na/K-ATPase α1 [11]
  endocytosis of Na/K-ATPase α1 (α1-positive vesicles): many al-positive vesicles were accumulated
[12]
  surface active Na/K-ATPase (3H-ouabain binding): significant decrease in surface active Na/K-ATPase
Na/K-ATPase α1 [13]
  cellular amount of Na/K-ATPase α1: reduced the cellular amount of α1
